# From ChEMBL document CHEMBL1201862, “PubChem BioAssay data set” (2004)
# Calls of active or inactive are those of the source.
# Tests used:
# [1] = biological target: T1, Sentrin-specific protease 6 (Homo sapiens, UniProt Q9GZR1); test: SAR Analysis of small molecule inhibitors of Sentrin-specific protease 6 (SENP6) using a Luminescent assay. [Related pubchem assays (depositor defined):AID2582, AID2599]; type: functional
# T1 sequence (Q9GZR1 whole entry): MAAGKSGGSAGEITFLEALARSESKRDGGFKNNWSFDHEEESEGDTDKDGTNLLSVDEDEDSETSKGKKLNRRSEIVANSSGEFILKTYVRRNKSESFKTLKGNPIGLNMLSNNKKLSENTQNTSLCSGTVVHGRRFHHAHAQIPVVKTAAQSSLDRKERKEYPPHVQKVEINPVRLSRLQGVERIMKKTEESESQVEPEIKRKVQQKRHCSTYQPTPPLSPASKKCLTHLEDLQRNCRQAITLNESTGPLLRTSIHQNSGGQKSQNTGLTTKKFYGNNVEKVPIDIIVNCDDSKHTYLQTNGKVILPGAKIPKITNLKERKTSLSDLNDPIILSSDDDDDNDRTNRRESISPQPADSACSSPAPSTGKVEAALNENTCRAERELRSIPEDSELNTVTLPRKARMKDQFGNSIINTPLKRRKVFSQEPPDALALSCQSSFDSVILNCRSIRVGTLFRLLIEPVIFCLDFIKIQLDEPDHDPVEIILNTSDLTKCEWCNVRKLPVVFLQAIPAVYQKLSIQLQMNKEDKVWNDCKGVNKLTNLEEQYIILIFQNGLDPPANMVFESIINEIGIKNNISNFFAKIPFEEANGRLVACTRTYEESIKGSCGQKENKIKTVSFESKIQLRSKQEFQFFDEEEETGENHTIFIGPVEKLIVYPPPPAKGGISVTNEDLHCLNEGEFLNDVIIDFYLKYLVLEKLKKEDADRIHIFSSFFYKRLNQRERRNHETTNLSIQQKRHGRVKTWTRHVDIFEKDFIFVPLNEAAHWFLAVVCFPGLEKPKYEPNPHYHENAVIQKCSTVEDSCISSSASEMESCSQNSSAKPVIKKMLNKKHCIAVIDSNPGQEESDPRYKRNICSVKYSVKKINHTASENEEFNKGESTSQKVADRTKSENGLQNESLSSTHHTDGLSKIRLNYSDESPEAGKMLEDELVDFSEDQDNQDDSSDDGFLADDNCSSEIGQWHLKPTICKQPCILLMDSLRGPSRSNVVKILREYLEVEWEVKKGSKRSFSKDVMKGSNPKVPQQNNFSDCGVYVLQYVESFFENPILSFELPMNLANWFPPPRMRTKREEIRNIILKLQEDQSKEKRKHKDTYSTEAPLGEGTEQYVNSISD
# [2] = biological target: T2, Sentrin-specific protease 8 (Homo sapiens, UniProt Q96LD8); test: SENP8 protease inhibitors, SAR follow-up, biochemical, luminescence (AID 504501); type: functional
# T2 sequence (Q96LD8 whole entry): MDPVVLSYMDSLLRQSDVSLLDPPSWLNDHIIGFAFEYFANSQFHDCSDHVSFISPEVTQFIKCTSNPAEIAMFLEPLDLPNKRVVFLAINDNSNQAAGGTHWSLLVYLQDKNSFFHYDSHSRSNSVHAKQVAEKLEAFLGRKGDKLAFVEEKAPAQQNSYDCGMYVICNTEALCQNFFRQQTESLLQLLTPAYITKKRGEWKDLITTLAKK
# [3] = biological target: T3, Sentrin-specific protease 7 (Homo sapiens, UniProt Q9BQF6); test: SENP7 protease inhibitors, SAR follow-up, biochemical, luminescence (AID 504497); type: functional
# T3 sequence (Q9BQF6 whole entry): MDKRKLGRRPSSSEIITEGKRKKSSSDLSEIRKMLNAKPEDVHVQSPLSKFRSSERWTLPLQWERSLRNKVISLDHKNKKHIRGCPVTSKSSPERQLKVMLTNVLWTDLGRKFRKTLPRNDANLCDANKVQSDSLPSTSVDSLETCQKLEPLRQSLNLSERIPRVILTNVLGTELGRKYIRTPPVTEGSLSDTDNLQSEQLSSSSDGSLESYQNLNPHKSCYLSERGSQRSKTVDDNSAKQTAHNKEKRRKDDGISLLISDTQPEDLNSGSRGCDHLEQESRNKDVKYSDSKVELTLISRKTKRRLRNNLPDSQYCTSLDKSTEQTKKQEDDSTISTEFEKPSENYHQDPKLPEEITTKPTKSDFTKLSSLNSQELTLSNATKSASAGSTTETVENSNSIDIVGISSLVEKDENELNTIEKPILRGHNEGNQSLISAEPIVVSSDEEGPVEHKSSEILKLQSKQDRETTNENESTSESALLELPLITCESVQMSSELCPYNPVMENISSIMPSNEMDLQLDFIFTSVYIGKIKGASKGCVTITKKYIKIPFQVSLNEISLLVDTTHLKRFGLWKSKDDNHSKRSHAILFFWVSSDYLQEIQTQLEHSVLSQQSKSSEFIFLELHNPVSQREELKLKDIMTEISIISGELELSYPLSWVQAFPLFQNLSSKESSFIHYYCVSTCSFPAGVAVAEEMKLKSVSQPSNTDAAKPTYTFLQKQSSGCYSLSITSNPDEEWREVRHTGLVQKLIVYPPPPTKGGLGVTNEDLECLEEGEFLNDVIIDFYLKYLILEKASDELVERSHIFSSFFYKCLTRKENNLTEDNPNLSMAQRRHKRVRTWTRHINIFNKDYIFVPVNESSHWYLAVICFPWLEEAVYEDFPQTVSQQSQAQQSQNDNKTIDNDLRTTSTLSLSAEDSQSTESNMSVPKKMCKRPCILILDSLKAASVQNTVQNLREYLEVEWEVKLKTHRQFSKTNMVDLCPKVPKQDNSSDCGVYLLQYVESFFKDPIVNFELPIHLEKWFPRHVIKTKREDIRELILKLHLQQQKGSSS
# Caspase-3 = biological target: T4, Caspase-3 (Homo sapiens, UniProt P42574); test: SAR Analysis of small molecule inhibitors of Sentrin-specific proteases (SENPs) using a Caspase-3 Selectivity assay. [Related pubchem assays (depositor defined):AID2540, AID2599, AID434973, AID489001]; type: functional
# T4 sequence (P42574 whole entry): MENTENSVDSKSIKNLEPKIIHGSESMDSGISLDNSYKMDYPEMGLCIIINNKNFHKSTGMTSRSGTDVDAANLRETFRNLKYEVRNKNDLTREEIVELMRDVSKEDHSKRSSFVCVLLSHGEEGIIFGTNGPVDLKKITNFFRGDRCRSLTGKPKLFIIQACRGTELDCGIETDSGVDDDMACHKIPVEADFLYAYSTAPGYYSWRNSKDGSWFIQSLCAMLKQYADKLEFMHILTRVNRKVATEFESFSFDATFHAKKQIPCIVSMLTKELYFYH
# [4] = biological target: T5, RNA-binding protein pos-1 (Caenorhabditis elegans, UniProt G5EF15); test: inhibitors of POS-1/mex-3 RNA binding, dose response, biochemical, fluorescence polarization (AID 1964);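 also: purified POS-1 fused to maltose binding protein made in E. coli; potency of compounds blocking POS-1 binding to fluorescent RNA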
# T5 sequence (G5EF15 whole entry): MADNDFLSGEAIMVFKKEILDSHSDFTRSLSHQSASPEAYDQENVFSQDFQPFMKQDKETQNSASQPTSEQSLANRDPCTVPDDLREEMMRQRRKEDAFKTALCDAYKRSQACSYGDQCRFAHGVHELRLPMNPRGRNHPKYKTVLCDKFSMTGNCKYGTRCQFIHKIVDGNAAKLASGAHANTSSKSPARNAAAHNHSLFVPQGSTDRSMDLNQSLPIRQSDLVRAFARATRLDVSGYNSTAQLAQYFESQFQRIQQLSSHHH
# [5] = biological target: T6, Polyadenylate-binding protein 1 (Homo sapiens, UniProt P11940); test: PABP1 MLLE–PAM2 interaction inhibitors, dose response, miRNA deadenylation inhibitor project, biochemical, fluorescence polarization, Cy5-PAM2 peptide, secondary (AID 602260); type: functional; conditions: read-out: IC50_Mean
# CHO-K1 = test: (§1) Counterscreen for antagonists of the orexin 1 receptor (OX1R; HCRTR1): Homogeneous time resolved fluorescence (HTRF)-based cell-based dose response assay to identify antagonists of the parental CHO-K1 cell line. [Related pubchem assays (depositor defined):AID434989, AID435008, AID463079, AID485270, AID492963, AID492964, AID492965, AID493232, AID504699, AID504701]; type: functional; conditions: Cricetulus griseus
# [6] = biological target: T7, Orexin/Hypocretin receptor type 1 (Homo sapiens, UniProt O43613); test: Homogeneous Time Resolved Fluorescence (HTRF)-based cell-based high throughput dose response assay for antagonists of the orexin 1 receptor (OX1R; HCRTR1). [Related pubchem assays (depositor defined):AID434989, AID435008, AID463079, AID485270, AID492963, AID492964, AID492965, AID493232, AID504717, AID504718]; type: functional
# [7] = biological target: T6, Polyadenylate-binding protein 1; test: PABP1 MLLE–PAM2 binding inhibitor potency, dose response, biochemical, fluorescence polarization, FITC-PAM2 peptide (AID 602259); type: functional; conditions: read-out: IC50_Mean
# Orexin receptor type 2 [8] = biological target: T8, Orexin receptor type 2 (Homo sapiens, UniProt O43614); test: Counterscreen assay for antagonists of the orexin 1 receptor (OX1R; HCRTR1): Homogeneous Time Resolved Fluorescence (HTRF)-based cell-based dose response assay for antagonists of the orexin 2 receptor (OX2R; HCRTR2), run by assay provider.; type: functional
# [9] = biological target: T7, Orexin/Hypocretin receptor type 1; test: Fluorescence-based cell-based high throughput dose response assay for antagonists of the orexin 1 receptor (OX1R; HCRTR1). [Related pubchem assays (depositor defined):AID434989, AID435008, AID463079, AID485270, AID492963, AID492964, AID492965, AID493232, AID504717, AID504718]; type: functional
# [10] = biological target: T9, Zinc finger protein mex-5 (Caenorhabditis elegans, UniProt Q9XUB2); test: MEX-5/TCR-2 RNA interaction inhibitors, dose response, biochemical, C. elegans, fluorescence polarization (AID 1960)
# T9 sequence (Q9XUB2 whole entry): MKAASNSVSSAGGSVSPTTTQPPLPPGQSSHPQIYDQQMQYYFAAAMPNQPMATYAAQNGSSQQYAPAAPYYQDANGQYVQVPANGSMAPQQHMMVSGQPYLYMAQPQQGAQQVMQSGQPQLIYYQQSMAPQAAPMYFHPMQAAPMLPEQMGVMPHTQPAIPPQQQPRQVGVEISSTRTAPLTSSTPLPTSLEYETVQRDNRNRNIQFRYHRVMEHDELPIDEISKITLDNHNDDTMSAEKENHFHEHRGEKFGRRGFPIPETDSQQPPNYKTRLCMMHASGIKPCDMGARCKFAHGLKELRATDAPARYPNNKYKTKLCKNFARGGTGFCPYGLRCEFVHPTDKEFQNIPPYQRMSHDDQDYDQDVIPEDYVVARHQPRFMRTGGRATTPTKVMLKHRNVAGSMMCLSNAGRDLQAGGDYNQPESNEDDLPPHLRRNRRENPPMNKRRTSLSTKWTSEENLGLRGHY
# [11] = as §1, with “Fluorescence-based” for “Homogeneous time resolved fluorescence (HTRF)-based”, “cell-based high throughput” for “cell-based”, “CHO” for “CHO-K1”; type: functional
# Orexin receptor type 2 [12] = biological target: T8, Orexin receptor type 2; test: Counterscreen assay for antagonists of the orexin 1 receptor (OX1R; HCRTR1): Fluorescence-based cell-based dose response assay for antagonists of the orexin 2 receptor (OX2R; HCRTR2), run by assay provider.; type: functional
# Insulin-degrading enzyme [13] = biological target: T10, Insulin-degrading enzyme (Homo sapiens, UniProt P14735); test: activators of recombinant IDE enzyme, dose response, counter-screen for IDE activator project, biochemical, fluorescence polarization (AID 588681)
# HEK293 [14] = test: optical interference in Abeta FP readout, dose response, artefact control for IDE activator project, biochemical, fluorescence polarization (AID 588442); type: functional, cell-based; conditions: Homo sapiens
# Insulin-degrading enzyme [15] = biological target: T10, Insulin-degrading enzyme; test: activators of endogenous IDE in HEK cells, dose response, cell-based, fluorescence polarization (AID 588439); type: functional
# HEK293 [16] = test: HEK cell cytotoxicity by LDH release, dose response, cytotoxicity control for IDE activator project, fluorescence, HEK cells (AID 588440); type: functional, cell-based; conditions: Homo sapiens;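 also: cytotoxicity by LDH release measuring loss of membrane integrity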
# T8 sequence (O43614 whole entry): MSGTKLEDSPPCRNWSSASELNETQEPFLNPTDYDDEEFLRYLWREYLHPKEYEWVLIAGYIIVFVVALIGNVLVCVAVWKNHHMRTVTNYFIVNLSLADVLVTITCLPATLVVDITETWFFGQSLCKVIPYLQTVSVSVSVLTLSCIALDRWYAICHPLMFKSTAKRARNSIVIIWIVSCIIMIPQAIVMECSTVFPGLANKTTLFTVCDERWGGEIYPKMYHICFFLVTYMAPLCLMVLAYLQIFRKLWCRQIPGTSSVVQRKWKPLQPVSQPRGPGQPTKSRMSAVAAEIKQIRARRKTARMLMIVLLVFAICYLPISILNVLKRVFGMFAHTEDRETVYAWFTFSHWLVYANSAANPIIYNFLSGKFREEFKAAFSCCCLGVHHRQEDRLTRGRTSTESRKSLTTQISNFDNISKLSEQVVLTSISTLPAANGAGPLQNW
# T6 sequence (P11940 whole entry): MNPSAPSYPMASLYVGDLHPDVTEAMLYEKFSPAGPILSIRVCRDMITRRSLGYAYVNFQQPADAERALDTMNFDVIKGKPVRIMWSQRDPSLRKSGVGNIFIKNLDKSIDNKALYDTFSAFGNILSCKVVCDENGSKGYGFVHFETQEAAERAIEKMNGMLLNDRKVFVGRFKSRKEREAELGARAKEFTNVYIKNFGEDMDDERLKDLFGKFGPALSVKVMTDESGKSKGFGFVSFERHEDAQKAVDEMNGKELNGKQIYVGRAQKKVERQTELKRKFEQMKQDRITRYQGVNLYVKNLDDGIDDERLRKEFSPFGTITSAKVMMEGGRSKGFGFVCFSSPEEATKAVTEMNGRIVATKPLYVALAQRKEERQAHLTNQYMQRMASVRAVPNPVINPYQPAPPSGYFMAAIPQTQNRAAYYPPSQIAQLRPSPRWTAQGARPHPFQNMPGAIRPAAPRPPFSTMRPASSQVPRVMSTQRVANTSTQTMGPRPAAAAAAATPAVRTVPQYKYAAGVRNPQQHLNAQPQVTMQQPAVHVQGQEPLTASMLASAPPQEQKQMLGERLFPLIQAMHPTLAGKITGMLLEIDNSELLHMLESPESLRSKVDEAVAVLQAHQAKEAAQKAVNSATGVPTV
# T7 sequence (O43613 whole entry): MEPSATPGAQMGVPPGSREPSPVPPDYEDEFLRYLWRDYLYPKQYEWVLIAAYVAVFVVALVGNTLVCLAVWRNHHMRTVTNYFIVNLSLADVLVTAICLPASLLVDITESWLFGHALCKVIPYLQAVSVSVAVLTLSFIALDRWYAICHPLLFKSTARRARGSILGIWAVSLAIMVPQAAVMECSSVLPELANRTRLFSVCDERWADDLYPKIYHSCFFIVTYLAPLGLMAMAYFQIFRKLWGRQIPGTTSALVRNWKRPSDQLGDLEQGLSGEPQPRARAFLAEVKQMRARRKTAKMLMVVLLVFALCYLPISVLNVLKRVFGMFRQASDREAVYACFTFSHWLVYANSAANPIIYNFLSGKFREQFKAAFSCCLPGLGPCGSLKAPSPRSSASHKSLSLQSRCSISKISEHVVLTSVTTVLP
# T10 sequence (P14735 whole entry): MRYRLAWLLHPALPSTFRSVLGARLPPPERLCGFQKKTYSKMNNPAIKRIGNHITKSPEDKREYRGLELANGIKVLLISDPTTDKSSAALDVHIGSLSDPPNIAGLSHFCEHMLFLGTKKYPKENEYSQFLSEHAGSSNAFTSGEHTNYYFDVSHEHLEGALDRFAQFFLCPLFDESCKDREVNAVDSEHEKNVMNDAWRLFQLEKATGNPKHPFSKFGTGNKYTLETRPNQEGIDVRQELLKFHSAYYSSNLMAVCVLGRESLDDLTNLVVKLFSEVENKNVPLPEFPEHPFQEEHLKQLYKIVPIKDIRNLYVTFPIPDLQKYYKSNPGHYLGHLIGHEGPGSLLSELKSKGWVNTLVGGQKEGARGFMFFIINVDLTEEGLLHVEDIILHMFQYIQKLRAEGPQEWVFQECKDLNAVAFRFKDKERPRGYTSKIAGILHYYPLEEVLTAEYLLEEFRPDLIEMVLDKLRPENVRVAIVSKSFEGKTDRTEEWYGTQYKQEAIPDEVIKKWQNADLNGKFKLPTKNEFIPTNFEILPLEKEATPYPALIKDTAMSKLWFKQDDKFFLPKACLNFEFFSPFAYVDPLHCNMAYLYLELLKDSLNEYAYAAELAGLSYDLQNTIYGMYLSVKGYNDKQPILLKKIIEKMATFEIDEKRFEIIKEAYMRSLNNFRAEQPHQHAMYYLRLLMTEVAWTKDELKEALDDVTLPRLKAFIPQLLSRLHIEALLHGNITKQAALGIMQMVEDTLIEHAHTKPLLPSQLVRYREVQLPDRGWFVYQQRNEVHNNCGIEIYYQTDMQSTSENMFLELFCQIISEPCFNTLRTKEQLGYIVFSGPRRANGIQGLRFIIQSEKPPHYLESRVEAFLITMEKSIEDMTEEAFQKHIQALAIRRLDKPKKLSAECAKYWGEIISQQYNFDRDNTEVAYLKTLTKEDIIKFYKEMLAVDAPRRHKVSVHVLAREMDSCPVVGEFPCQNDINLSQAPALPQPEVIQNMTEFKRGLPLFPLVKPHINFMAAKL
smiles,measurement,setting,value
CC1CC(C)CN(S(=O)(=O)c2ccc(C(=O)Nc3nc4ccc(C(C)C)cc4s3)cc2)C1 (stereo not drawn),IC50,[1],> 99 µM (inactive)
same,IC50,[2],> 99 µM (inactive)
same,IC50,[3],> 99 µM (inactive)
same,IC50,Caspase-3,> 99 µM (inactive)
COc1ccc(/C=c2\sc3nc(-c4ccccc4OC)nn3c2=O)c(OC)c1,EC50,[4],21.5 µM (active)
same,IC50,[5],> 66 µM (inactive)
same,IC50,CHO-K1,> 66.2 µM (inactive)
same,IC50,[6],0.723 µM (active)
same,IC50,[7],48.3 µM (inactive)
same,IC50,Orexin receptor type 2 [8],> 50 µM (inactive)
same,IC50,[9],0.526 µM (active)
same,EC50,[10],31.4 µM (active)
same,IC50,[11],> 49.8 µM (inactive)
same,IC50,Orexin receptor type 2 [12],33.5 µM (inactive)
CC(C)CCn1nnnc1CN1CCN(c2ccccc2)CC1,EC50,Insulin-degrading enzyme [13],29.8 µM (inactive)
same,EC50,HEK293 [14],> 55.9 µM (inactive)
same,EC50,Insulin-degrading enzyme [15],32.3 µM (inactive)
same,IC50,HEK293 [16],> 89.1 µM (inactive)
